Consider 14 compounds from US20170027893A1, “THIOSEMICARBAZONES INHIBITORS OF LYSOPHOSPHATIDIC ACID ACYLTRANSFERASE AND USES THEREOF” (H. LEE CANCER CENTER AND RESEARCH INSTITUTE, INC., priority 2014, published 2017).

In assay [1] the target is T1, LPAAT-β (Homo sapiens, UniProt O15120).
T1 sequence (O15120 24-278): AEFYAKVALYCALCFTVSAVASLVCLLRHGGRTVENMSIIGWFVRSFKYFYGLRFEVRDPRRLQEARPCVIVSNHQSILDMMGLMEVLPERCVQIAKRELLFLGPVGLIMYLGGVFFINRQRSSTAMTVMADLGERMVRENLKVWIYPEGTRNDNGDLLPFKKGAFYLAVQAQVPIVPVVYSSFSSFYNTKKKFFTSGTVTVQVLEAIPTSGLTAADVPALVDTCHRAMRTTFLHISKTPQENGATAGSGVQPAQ
The note with it: previously reported inhibitors; cited from earlier work.

Assay [2] relates to MiaPaCa2 human pancreatic cancer cells. Description: inhibition of proliferation, Alamar blue, 72 h. It counts as cell-based. The method, then:
The ability of selected compounds from the libraries 6, 15 and 19 to inhibit the growth of MiaPaCa2 human pancreatic cancer cells was investigated. Human pancreatic carcinoma (MiaPaCa2) cells were plated at a low confluency into 96-well tissue culture-treated plates. After allowing cells to attach and grow overnight at 37 degrees in a 5% CO2 incubator, growth medium was replaced with fresh medium (100 μl/well) containing compounds in a range from 0.1-100 μM. All treatments were made from 500× stock solutions in DMSO, and the control wells received an equivalent amount of DMSO in medium. After 72 hours of growth in the presence of the compounds, Alamar blue was added to the wells according to the manufacturer's instructions (Life Technologies, Grand Island, N.Y.) and cells were incubated in its presence for 2-3 hours. Fluorescence readings were performed using a Biotek Synergy II plate reader with […] wavelengths of 530/590 nm. […] Calculated IC50s are representative of at least three independent experiments.
Background: Alamar Blue is a resazurin reagent that responds to reducing activity.

For assay [3], the target named is T1, LPAAT-β. The experiment in a line: DTNB (Ellman's reagent) 96-well plate screening assay of LPAAT-β enzymatic activity. The arrangement: The assay utilizes full-length, recombinant, baculovirus-produced LPAAT-β; made in house. It is filed as biochemical. The protocol: Screening with a modified screening assay in 96-well plate format for LPAAT-β enzymatic activity was performed as reported by Aguado and Campbell (Aguado et al., Characterization of a human lysophosphatidic acid acyltransferase that is encoded by a gene located in the class III region of the human major histocompatibility complex. J. Biol. Chem. 1998, 273, 4096-105).
The assay utilizes full-length, recombinant, baculovirus-produced LPAAT-β, which catalyzes the production of dioleoyl-[…] from the enzymatic substrates oleoyl-lysophosphatidic acid (LPA) and oleoyl-coenzyme A (Scheme 2). The ability of the compound to inhibit the LPAAT-β activity was assayed by the colorimetric measurement of the reaction of the free thiol group of the released coenzyme A with Ellman's reagent [5,5′-dithiobis-(2-nitrobenzoic acid) or DTNB] (Riener et al., Quick measurement of protein sulfhydryls with Ellman's reagent and with 4,4′-dithiodipyridine. Anal. Bioanal. Chem. 2002, 373, 266-76). […] A hit identified from the Life Chemicals library 6a (IC50 100 nM) was selected for further investigation.
A general note: In Ellman's method for cholinesterases, released thiocholine reacts with DTNB.

Assay [4] deals with T1, LPAAT-β. Description: secondary thin layer chromatography (TLC) assay measuring fluorescent PA. It is filed as biochemical. The arrangement: The assay utilizes full-length, recombinant, baculovirus-produced LPAAT-β; made in house.
[5] abbreviates: Table 4, read-out: IC50 (μm) (DTNB assay) (converted).
The mark [6] stands for this setting: read-out: IC50 (μM) (DTNB assay) (converted).

The structures appear in SMILES notation. Read-outs that look alike come from different tables or passages of the source.

`CCOc1ccc(Cl)cc1-c1cc(N)nc(Nc2ccc(Cl)cc2)c1` [Compound 2]: the “in vitro activity against LPAAT-β enzyme activity, in words” value (from here on “in vitro activity”) in assay [1] is “potent in vitro activity”.

In general, IC50 refers to the midpoint of a concentration-inhibition curve. On to `C=CCc1cc(Cl)cc(C(C)=NNC(N)=S)c1O` [Compound 19a], for which the IC50 in assay [2] was 14 ± 5.5 µM; in assay [3] (setting [5]), 0.17 ± 0.09 µM; in assay [3] (setting [6]) it was 0.17 ± 0.09 µM; in assay [4], 3.3 ± 1.2 µM; in assay [4] (Table 4), 3.3 ± 1.2 µM.

For `C#CCOC(=O)Nc1ccc(Cl)c(-c2nc3cc(Cl)ccc3o2)c1` [Compound 3], the “in vitro activity” value in assay [1] is “potent anti-enzymatic activity”.

With `C=CCc1cc(CCCC)cc(C(C)=NNC(N)=S)c1O` [Compound 19h], the half-inhibitory concentration (IC50) in assay [2] is 12 ± 3.3 µM; in assay [3] (setting [5]), 0.16 µM; in assay [3] (setting [6]), 0.16 ± 0.07 µM; in assay [4], 1.4 ± 1.1 µM; in assay [4] (Table 4), 1.4 µM.

With `C=CCc1cc(-c2ccc(Cl)cc2Cl)cc(C(C)=NNC(N)=S)c1O` [Compound 19r], the IC50 in assay [2] (Homo sapiens, MIA PaCa-2) is 7.6 ± 0.9 µM; in assay [3] (setting [5]) it was 0.52 ± 0.23 µM; in assay [3] (setting [6]) it was 0.52 ± 0.23 µM; in assay [4], 2.1 ± 0.9 µM; in assay [4] (Table 4), 2.1 ± 0.9 µM.

Turning to `CCOc1ccc(Cl)cc1-c1cc(Nc2ccc(Cl)cc2)nc(N)n1` [Compound 1], the “in vitro activity” value in assay [1] was “potent in vitro activity”.

As to `C=CCc1cc(-c2ccc(Br)cc2)cc(C(C)=NNC(N)=S)c1O` [Compound 19o], the IC50 is 5.8 ± 1.6 µM in assay [2]; 0.18 µM in assay [3] (setting [5]); 0.18 ± 0.07 µM in assay [3] (setting [6]); 4.2 ± 1.2 µM in assay [4]; 4.2 µM in assay [4] (Table 4).

Turning to `C=CCc1cccc(/C=N/NC(N)=S)c1O` [Compound 6a], the IC50 in assay [2] (Homo sapiens, MIA PaCa-2) was 38 ± 17 µM; in assay [3] (hit from the Life Chemicals library, before resynthesis, read-out: IC50 of the hit in the library screen) it was 0.1 µM; in assay [3] (setting [6]) it was 0.86 ± 0.52 µM; in assay [4] it was 33 ± 13 µM.

For `CCCc1cccc(C(C)=NNC(N)=S)c1O` [Compound 15a], the IC50 in assay [2] (Homo sapiens, MIA PaCa-2) was 23 ± 15 µM; in assay [3] (setting [6]), 0.65 ± 0.42 µM; in assay [4], 35 ± 18 µM.

Consider `C=CCc1cc(-c2ccc(C)c(Cl)c2)cc(C(C)=NNC(N)=S)c1O` [Compound 19w], for which the IC50 in assay [2] was 7.2 ± 3.1 µM; in assay [3] (setting [5]) it was 0.67 ± 0.16 µM; in assay [3] (setting [6]), 0.67 ± 0.16 µM; in assay [4] it was 9.2 ± 4.2 µM; in assay [4] (Table 4) it was 9.2 ± 4.2 µM.

As for `C=CCc1cc(-c2cccc(C#N)c2)cc(C(C)=NNC(N)=S)c1O` [Compound 19v], the IC50 in assay [2] (Homo sapiens, MIA PaCa-2) was 7.8 ± 2.7 µM; in assay [3] (setting [5]) it was 0.28 ± 0.02 µM; in assay [3] (setting [6]), 0.28 ± 0.02 µM; in assay [4], above 10 µM; in assay [4] (Table 4), above 10 µM.

As for `C=CCc1cc(-c2ccc(Cl)cc2)cc(C(C)=NNC(N)=S)c1O` [Compound 19p], the IC50 in assay [2] is 7.4 ± 2.3 µM; in assay [3] (setting [5]), 0.32 ± 0.07 µM; in assay [3] (setting [6]), 0.32 ± 0.07 µM; in assay [4], 2.5 ± 1.4 µM; in assay [4] (Table 4), 2.5 ± 1.4 µM.

Turning to `CCc1cccc(C=NNC(N)=S)c1O` [Compound 6j], the IC50 in assay [2] (Homo sapiens, MIA PaCa-2) was 36 ± 20 µM; in assay [3] (setting [6]) it was 0.85 ± 0.56 µM; in assay [4], 48 ± 15 µM.

As to `C=CCc1cc(-c2cc(Cl)cc(Cl)c2)cc(C(C)=NNC(N)=S)c1O` [Compound 19t], the IC50 was 4.9 ± 2 µM in assay [2] (Homo sapiens, MIA PaCa-2); 0.57 ± 0.27 µM in assay [3] (setting [5]); 0.57 ± 0.27 µM in assay [3] (setting [6]); 17 ± 7.3 µM in assay [4]; 17 ± 7.3 µM in assay [4] (Table 4).
